Laboratory results published in US20220184072A1 (priority 2019, published 2022).

Legend:
Format in all cases: in vivo
[1] = test system: ZFD rats; assay: ZFD rat model, paw cold response
Experimental: Forty (40) adult, male […] rats weighing 225-275 g at the start of the study are used in these experiments, including ten (10) lean, controls and thirty (30) ZFD rats. Animals are maintained in the vivarium at a controlled room temperature between 65 to 85° F. and a relative humidity between 30-70% under illumination by fluorescent lighting on a daily 12-hour light/dark cycle. All animals are maintained 2 per cage with free access to dry food and water.
Paw cold response threshold: This test replicates the clinical test of cold pain perception threshold. Rats are transferred to a testing cage with a wire mesh bottom and allowed to acclimate. A rigid filament attached to a Peltier thermoelectric cooling system is used to stimulate the plantar surface of the hind paw for 5 seconds. The stimulus is repeated 10 times at 2 to 5 minute intervals and the number of paw withdrawal responses is recorded and converted to a response frequency (%). This paradigm is repeated at various stimulation temperatures.
Dosing procedures. Zucker Fatty Diabetic rats are found to develop hyperglycemia over 6-8 weeks. […] Upon confirmation of the presence of painful neuropathy, rats are tested for three measures of hyperalgesia: cold allodynia threshold, tactile hyperalgesia (von Frey filaments), and pressure responses measured by a mechanical von Frey device. All rats are tested in all three assays and all rats receive each of four (4) pre-treatments administered subcutaneously (s.c.) in a vehicle of 10% Trappsol in water. All rats receive treatments in the same order, as follows: vehicle, 1 mg/kg Compound of Ex. 1, 3 mg/kg Compound of Ex. 1, and 10 mg/kg Compound of Ex. 1. Rats receive pre-treatments 30 minutes prior to the start of testing. Hyperalgesia/allodynia measures are recorded from each rat at baseline (0 time), then 1, 2, 3, 4, and 6 h after treatment.
After the completion of testing of all rats at all dose/conditions for each assay (cold, tactile, and pressure responses) rats are out-fitted with cannulas for intrathecal (i.t.) application of vehicle or Compound of Ex. 1 (1, 3 or 10 μg) directly to spinal cord. All rats are then re-tested in each of the tree assays at each of the 4 pretreatment conditions/doses.

[2] = test system: STZ-diabetic rats; assay: STZ-rat model, tactile stimuli (von Frey filaments)
Experimental: (§1) The compound of Example 1 is also tested in an STZ-rat model of neuropathic pain. Briefly, adult female rats are made diabetic by treatment with streptozotocin (STZ), an alkylating neoplastic agent which is particularly toxic to the insulin-producing beta cells of the pancreas. The resulting type-I diabetes in the rats leads to the development of diabetic neuropathy over a 3 to 6-week period. […] Once diabetic neuropathy has been induced, the rats may be treated to determine the analgesic effect of compounds.
Paw tactile response threshold is a clinical assessment of allodynia to light touch. It can be measured using manual von Frey filaments (as described in Otto et al., Pain, 101:187-92 (2003). A series of von Frey filaments with logarithmically increasing stiffness are used, and the rats' response to each filament is observed. The results are used to calculate a 50%-withdrawal threshold (an amount of stiffness in the filament resulting in a 50% probability of withdrawal of the rat's paw).
This test is performed using the von Frey filaments as described above.

[3] = test system: STZ-diabetic rats; assay: STZ-rat model, cold allodynia response
Experimental: as §1
Paw cold response threshold is a clinical assessment of cold pain perception. A rigid filament with a thermoelectric cooling system is used to stimulate the plantar surface of the hind paw for 5 seconds. The stimulus is repeated ten times at 2 to 5-minute intervals. The number of paw withdrawal responses is recorded and converted to a response frequent figure (%). This procedure is repeated at a variety of temperatures. […] At a stimulus temperature of 20° C. or 15° C., the response frequency is found to be substantially the same between STZ-treated rats and control rats (from about 10-20% response). In contrast, at a stimulus temperature of 10° C. or below, there is a substantial divergence of frequency response. In control rats, a stimulus temperature of 10° C. results in about 10% response frequency, while at 5° C., this increases to about 40% response frequency. In contrast, STZ-treated rats show a response frequency of about 60% at 10° C., and about 80% at 5° C. […] A stable cold allodynia response is observed 4-12 weeks after induction of diabetes.
The cold allodynia response test is performed at 0 hours, 1 hour, 2 hours, 4 hours and 6 hours, as described above, using a 10° C. stimulus temperature. The injection vehicle is pure polyethylene glycol-400 (PEG400).

[4] = test system: STZ-diabetic rats; assay: STZ-rat model, mechanical (pressure) stimuli
Experimental: as §1
Paw mechanical response threshold is also a clinical assessment of allodynia to light touch, but it relies on the observed response to pressure (force) applied to a paw.
This test is performed by measuring the static applied force threshold (pressure) for paw removal, as described above.

O=C1CN2c3c(cccc3[C@@H]3CN(CCCOc4ccc(F)cc4)CC[C@@H]32)N1 [Example 1, (6bR,10aS)-8-(3-(4-fluorophenoxy)propyl)-6b,7,8,9,10,10a-hexahydro-1H-pyrido[3′,4′:4,5]pyrrolo[1,2,3-de]quinoxalin-2(3H)-one]
Cold Test response frequency ([1]; Control rats, 10 μg i.t., 0 hr): 17%
Cold Test response frequency ([1]; Control rats, 10 μg i.t., 1 hr): 11%
Cold Test response frequency ([1]; Control rats, 10 μg i.t., 2 hr): 20%
Cold Test response frequency ([1]; Control rats, 10 μg i.t., 4 hr): 14%
Cold Test response frequency ([1]; Control rats, 10 mg/kg s.c., 0 hr): 16%
Cold Test response frequency ([1]; Control rats, 10 mg/kg s.c., 1 hr): 18%
Cold Test response frequency ([1]; Control rats, 10 mg/kg s.c., 2 hr): 10%
Cold Test response frequency ([1]; Control rats, 10 mg/kg s.c., 4 hr): 10%
Cold Test response frequency ([1]; ZFD rats, 1 μg i.t., 0 hr): 93%
Cold Test response frequency ([1]; ZFD rats, 1 μg i.t., 1 hr): 90%
Cold Test response frequency ([1]; ZFD rats, 1 μg i.t., 2 hr): 83%
Cold Test response frequency ([1]; ZFD rats, 1 μg i.t., 4 hr): 83%
Cold Test response frequency ([1]; ZFD rats, 3 μg i.t., 0 hr): 77%
Cold Test response frequency ([1]; ZFD rats, 3 μg i.t., 1 hr): 37%
Cold Test response frequency ([1]; ZFD rats, 3 μg i.t., 2 hr): 27%
Cold Test response frequency ([1]; ZFD rats, 3 μg i.t., 4 hr): 70%
Cold Test response frequency ([1]; ZFD rats, 10 μg i.t., 0 hr): 93%
Cold Test response frequency ([1]; ZFD rats, 10 μg i.t., 1 hr): 33%
Cold Test response frequency ([1]; ZFD rats, 10 μg i.t., 2 hr): 33%
Cold Test response frequency ([1]; ZFD rats, 10 μg i.t., 4 hr): 77%
Cold Test response frequency ([1]; ZFD rats, 1 mg/kg s.c., 0 hr): 88%
Cold Test response frequency ([1]; ZFD rats, 1 mg/kg s.c., 1 hr): 96%
Cold Test response frequency ([1]; ZFD rats, 1 mg/kg s.c., 2 hr): 94%
Cold Test response frequency ([1]; ZFD rats, 1 mg/kg s.c., 4 hr): 86%
Cold Test response frequency ([1]; ZFD rats, 3 mg/kg s.c., 0 hr): 88%
Cold Test response frequency ([1]; ZFD rats, 3 mg/kg s.c., 1 hr): 32%
Cold Test response frequency ([1]; ZFD rats, 3 mg/kg s.c., 2 hr): 26%
Cold Test response frequency ([1]; ZFD rats, 3 mg/kg s.c., 4 hr): 90%
Cold Test response frequency ([1]; ZFD rats, 10 mg/kg s.c., 0 hr): 90%
Cold Test response frequency ([1]; ZFD rats, 10 mg/kg s.c., 1 hr): 28%
Cold Test response frequency ([1]; ZFD rats, 10 mg/kg s.c., 2 hr): 16%
Cold Test response frequency ([1]; ZFD rats, 10 mg/kg s.c., 4 hr): 48%
50% withdrawal threshold ([2]; STZ-diabetic rats, 1 mg/kg s.c., 4 hours (peak)): about 4 g
50% withdrawal threshold ([2]; STZ-diabetic rats, 1 mg/kg s.c., 6 hours): about 3 g
50% withdrawal threshold ([2]; STZ-diabetic rats, 3 mg/kg s.c., 1 hours): about 6 g
50% withdrawal threshold ([2]; STZ-diabetic rats, 3 mg/kg s.c., 2 hours (peak)): ~8 g
50% withdrawal threshold ([2]; STZ-diabetic rats, 3 mg/kg s.c., 4 hours): about 3 g
50% withdrawal threshold ([2]; STZ-diabetic rats, 10 mg/kg s.c., 1 hour): about 9 g
50% withdrawal threshold ([2]; STZ-diabetic rats, 10 mg/kg s.c., 2 hours (peak)): about 10 g
50% withdrawal threshold ([2]; STZ-diabetic rats, 10 mg/kg s.c., 6 hours): about 3 g
50% withdrawal threshold ([2]; rat, in vivo, sc, 10 mg/kg): about 7 g
cold response frequency ([3]; 1 mg/kg s.c., 1 hour): ~35%
cold response frequency ([3]; 1 mg/kg s.c., 4 hours): about 70%
cold response frequency ([3]; 1 mg/kg s.c., 6 hours): about 75%
cold response frequency ([3]; 3 mg/kg s.c., 1 hour): about 10%
cold response frequency ([3]; 3 mg/kg s.c., 4 hours): about 65%
cold response frequency ([3]; 3 mg/kg s.c., 6 hours): 75%
cold response frequency ([3]; 10 mg/kg s.c., 1 hour): about 15%
cold response frequency ([3]; 10 mg/kg s.c., 2 hours): about 10%
cold response frequency ([3]; 10 mg/kg s.c., 4 hours): about 20%
cold response frequency ([3]; 10 mg/kg s.c., 6 hours): about 40%
withdrawal force threshold ([4]; 1 mg/kg s.c., 4 hours (peak)): about 40 g
withdrawal force threshold ([4]; 1 mg/kg s.c., 6 hours): about 35 g
withdrawal force threshold ([4]; 3 mg/kg s.c., 2 hours (peak)): about 45 g
withdrawal force threshold ([4]; 3 mg/kg s.c., 6 hours): about 25 g
withdrawal force threshold ([4]; 10 mg/kg s.c., 1 hour): about 60 g
withdrawal force threshold ([4]; 10 mg/kg s.c., 2 hours to 4 hours): 45 to 50 g
withdrawal force threshold ([4]; 10 mg/kg s.c., 6 hours): about 35 g
